pIC50: −log10 of the molar value. Values after ≈ are worked out from the molar mass of the structure shown. Like-named read-outs stand apart in the source and are kept apart here.
Experiments:
in vitro = conditions: Chinese hamster
Mtb H37Rv strain = experiment: MIC90 determination in GASTE-Fe media (broth microdilution); format: cell-based, Mycobacterium tuberculosis; conditions: Mtb H37Rv, replicating conditions, GASTE-Fe media, read 14 days after incubation, read-out: MIC90 GASTE-Fe
[1] = format: in vitro ADME; conditions: for Metabolic Stability H (% Rem.): human liver microsomes; for Metabolic Stability M (% Rem.): mouse liver microsomes; for Metabolic Stability R (% Rem.): rat liver microsomes
Description: 3.2. Microsomal stability
The metabolic stability assay was performed in duplicate in a 96-well micro titre plate. The test compounds (0.1 μM) were incubated individually in mouse, rat and pooled human liver microsomes ((final protein concentration of 0.4 mg/mL; XenoTech, Lenexa, KS ), suspended in 0.1M phosphate buffer (pH 7.4) at 37 °C for predetermined time points, in the presence and absence of the cofactor NADPH (1 mM). Reactions were quenched by adding ice cold acetonitrile containing internal standard (carbamazepine, 0.0236 µg/mL). T he samples were centrifuged and test compound in the supernatant were analysed by means of LC -MS/MS (Agilent Rapid Resolution HPLC, AB SCIEX 4500 MS ). The relative loss of parent compound over time was monitored and plots (concentration vs. time) were prepared per compound to determine the first order rate constant for compound depletion. This was in turn used to calculate half-life, in vitro intrinsic clearance and in vivo hepatic extraction ratio. Metabolite searches were not conducted during the metabolic stability assay. 5

physchem = format: physicochemical; conditions: kinetic solubility, pH 7.4, HPLC method
Description: The kinetic solubility assay was performed using a miniaturised shake flask method. 10 mM stock solutions of each of the test compounds were used to prepare calibration standards (10-220μM) in DMSO. The same 10mM stock solutions were accurately dispensed in duplicate into 96-well plates and the DMSO dried down (MiVac GeneVac, 90 min, 37 °C). Thereafter, the samples were reconstituted (200 µM) in phosphate buffered saline (pH 7.4) and shaken (20 hours, 25 °C). The solutions were filtered and analysed by means of HPLC -DAD (Agilent 1200 Rapid Resolution HPLC with a diode array detector). […]

[2] = Mycobacterium tuberculosis, H37RV, 336 h

SMILES	pIC50 (in vitro)	MIC90 (Mtb H37Rv strain; [2]) [µM]	Metabolic Stability H (% Rem.) [1]	Metabolic Stability M (% Rem.) [1]	Metabolic Stability R (% Rem.) [1]	solubility (physchem; 25 °C, pH 7.4, aqueous buffer) [µM]	solubility (physchem) [µM]	MIC90 (Mtb H37Rv strain) [µM]
CN(C)CCNC(=O)c1cccc(-c2ccc3nc(N)n(-c4ccc(C(F)(F)F)cc4)c(=O)c3c2)c1 [compound 13]	< 4.30	0.82 (≈ 0.406 µg/mL)	82 % Rem.	56 % Rem.	40 % Rem.	168 (≈ 83.2 µg/mL)	–	–
Nc1nc2ccc(-c3cccc(C(=O)NCCO)c3)cc2c(=O)n1-c1ccc(C(F)(F)F)cc1 [compound 14]	< 4.30	1.03 (≈ 0.482 µg/mL)	81 % Rem.	90 % Rem.	83 % Rem.	192 (≈ 89.9 µg/mL)	193 (≈ 90.4 µg/mL)	–
Nc1nc2ccc(-c3cccc(C(=O)NCCN4CCOCC4)c3)cc2c(=O)n1-c1ccc(C(F)(F)F)cc1 [compound 15, 3-(2-amino-4-oxo-3-(4-(trifluoromethyl)phenyl)-3,4-dihydroquinazolin-6-yl)-N-(2-morpholinoethyl)benzamide]	5.06	1.45 (≈ 0.779 µg/mL)	51 % Rem.	59 % Rem.	62 % Rem.	< 5	–	–
Nc1nc2ccc(-c3cccc(C(=O)N4CCOCC4)c3)cc2c(=O)n1-c1ccc(C(F)(F)F)cc1 [compound 16, 2-Amino-6-(3-(morpholine-4-carbonyl)phenyl)-3-(4-(trifluoromethyl)phenyl)quinazolin-4(3H)-one]	< 4.30	4.93 (≈ 2.44 µg/mL)	71 % Rem.	78 % Rem.	77 % Rem.	56 (≈ 27.7 µg/mL)	–	–
Nc1nc2ccc(-c3cccc(C(=O)N4CCSCC4)c3)cc2c(=O)n1-c1ccc(C(F)(F)F)cc1 [compound 18, 2-Amino-6-(3-(thiomorpholine-4-carbonyl)phenyl)-3-(4-(trifluoromethyl)phenyl)quinazolin-4(3H)-one]	< 4.30	0.656 (≈ 0.335 µg/mL)	8 % Rem.	22 % Rem.	23 % Rem.	46 (≈ 23.5 µg/mL)	–	–
CN1CCN(C(=O)c2cccc(-c3ccc4nc(N)n(-c5ccc(C(F)(F)F)cc5)c(=O)c4c3)c2)CC1 [compound 19]	< 4.30	1.57 (≈ 0.797 µg/mL)	97 % Rem.	94 % Rem.	86 % Rem.	51 (≈ 25.9 µg/mL)	–	–
Nc1nc2ccc(-c3cccc(C(=O)O)c3)cc2c(=O)n1-c1ccc(C(F)(F)F)cc1 [compound 20]	< 4.00	112 (≈ 47.6 µg/mL)	99 % Rem.	98 % Rem.	97 % Rem.	29 (≈ 12.3 µg/mL)	–	–
Nc1nc2ccc(-c3cncnc3)cc2c(=O)n1-c1ccc(C(F)(F)F)cc1 [compound 21]	< 4.00	10 (≈ 3.83 µg/mL)	94/-/- % Rem.	–	–	40 (≈ 15.3 µg/mL)	–	–
Nc1nc2ccc(-c3cccnc3)cc2c(=O)n1-c1ccc(C(F)(F)F)cc1 [compound 22]	< 4.00	0.625 (≈ 0.239 µg/mL)	68/-/- % Rem.	–	–	20 (≈ 7.65 µg/mL)	–	–
Cc1cncc(-c2ccc3nc(N)n(-c4ccc(C(F)(F)F)cc4)c(=O)c3c2)c1 [compound 23]	< 4.00	> 2	87/-/- % Rem.	–	–	< 5	–	2.5 (≈ 0.991 µg/mL)
CN(C)c1cccc(-c2ccc3nc(N)n(-c4ccc(C(F)(F)F)cc4)c(=O)c3c2)c1 [compound 27]	< 4.00	2.5 (≈ 1.06 µg/mL)	37/-/- % Rem.	–	–	20 (≈ 8.49 µg/mL)	–	–
Nc1nc2ccc(-c3cccc(C(F)(F)F)c3)cc2c(=O)n1-c1ccc(C(F)(F)F)cc1 [compound 28]	< 4.00	0.75 (≈ 0.337 µg/mL)	88/-/- % Rem.	–	–	40 (≈ 18 µg/mL)	–	–
CS(=O)(=O)c1cccc(-c2ccc3c(=O)n(-c4ccc(C(F)(F)F)cc4)c(N)nc3c2)c1 [compound 30]	< 4.30	1.39 (≈ 0.639 µg/mL)	99/99/99 % Rem.	99/99/99 % Rem.	99/99/99 % Rem.	< 5	–	–
C[S+]([O-])c1cccc(-c2ccc3c(=O)n(-c4ccc(C(F)(F)F)cc4)c(N)nc3c2)c1 (centres unmarked) [compound 31]	< 4.30	1.32 (≈ 0.585 µg/mL)	98 % Rem.	78 % Rem.	73 % Rem.	< 5	–	–
Nc1nc2cc(-c3cccc(C(F)(F)F)c3)ccc2c(=O)n1-c1ccc(C(F)(F)F)cc1 [compound 32]	< 4.30	0.8 (≈ 0.359 µg/mL)	95 % Rem.	82 % Rem.	89 % Rem.	< 5	–	–
CNc1nc2ccc(-c3cccc([S+](C)[O-])c3)cc2c(=O)n1-c1ccc(C(F)(F)F)cc1 (centres unmarked) [compound 40, 2-(Methylamino)-6-(3-(methylsulfinyl)phenyl)-3-(4-(trifluoromethyl)phenyl)quinazolin-4(3H)-one]	< 4.30	1.4 (≈ 0.64 µg/mL)	89 % Rem.	87 % Rem.	90 % Rem.	64 (≈ 29.3 µg/mL)	–	–
CNc1nc2ccc(-c3cccc(S(C)(=O)=O)c3)cc2c(=O)n1-c1ccc(C(F)(F)F)cc1 [compound 41, 2-(Methylamino)-6-(3-(methylsulfonyl)phenyl)-3-(4-(trifluoromethyl)phenyl)quinazolin-4(3H)-one]	< 4.30	> 125	98 % Rem.	100 % Rem.	100 % Rem.	< 5	–	>125

— article PMC7359024, “Synthesis, Structure–Activity Relationship, and Mechanistic Studies of Aminoquinazolinones Displaying Antimycobacterial Activity” (ACS Infectious Diseases, 2020)
